Assay: Phase I clinical trial: treatment-emergent adverse events (patients, n (%)), dose limiting toxicity, MTD
Type: in vivo
Description: Safety, maximum tolerated dose (MTD), pharmacokinetics (PK) and preliminary antitumor activity were evaluated.
Pharmacodynamic (PD) endpoints were evaluated in surrogate (peripheral blood cells [PBCs], skin) and tumor tissues for the phosphorylation of TORC1-dependent markers (4EBP1/S6), and TORC2-dependent markers (AKT/PRAS40).

CC(C)n1nc(-c2ccc3oc(N)nc3c2)c2c(N)ncnc21 [compound A]
Anaemia (2 mg/day (N = 3)): 0 (0%)
Asthenia (2 mg/day (N = 3)): 0 (0%)
Blood creatinine increased (2 mg/day (N = 3)): 0 (0%)
Coagulopathy (2 mg/day (N = 3)): 0 (0%)
Confusional state (2 mg/day (N = 3)): 0 (0%)
Cough (2 mg/day (N = 3)): 0 (0%)
Decreased appetite (2 mg/day (N = 3)): 1 (33%)
Dehydration (2 mg/day (N = 3)): 0 (0%)
Diarrhoea (2 mg/day (N = 3)): 0 (0%)
Dizziness (2 mg/day (N = 3)): 0 (0%)
Dry mouth (2 mg/day (N = 3)): 1 (33%)
Dry skin (2 mg/day (N = 3)): 0 (0%)
Dysgeusia (2 mg/day (N = 3)): 2 (67%)
Dyspepsia (2 mg/day (N = 3)): 1 (33%)
Dyspnoea (2 mg/day (N = 3)): 0 (0%)
Dyspnoea exertional (2 mg/day (N = 3)): 0 (0%)
Eye infection (2 mg/day (N = 3)): 0 (0%)
Fatigue (2 mg/day (N = 3)): 1 (33%)
Gastritis (2 mg/day (N = 3)): 0 (0%)
Gravitational oedema (2 mg/day (N = 3)): 0 (0%)
Hypercholesterolaemia (2 mg/day (N = 3)): 0 (0%)
Hyperglycaemia (2 mg/day (N = 3)): 2 (67%)
Hypocalcaemia (2 mg/day (N = 3)): 0 (0%)
Insomnia (2 mg/day (N = 3)): 0 (0%)
Lymphopenia (2 mg/day (N = 3)): 0 (0%)
Mucosal inflammation (2 mg/day (N = 3)): 0 (0%)
Muscle spasms (2 mg/day (N = 3)): 0 (0%)
Nausea (2 mg/day (N = 3)): 1 (33%)
Orthostatic hypotension (2 mg/day (N = 3)): 0 (0%)
Panniculitis (2 mg/day (N = 3)): 0 (0%)
Patients Reporting at Least One Related TEAE (2 mg/day (N = 3)): 3 (100%)
Polyuria (2 mg/day (N = 3)): 0 (0%)
Pruritus (2 mg/day (N = 3)): 0 (0%)
Rash (2 mg/day (N = 3)): 1 (33%)
Skin discolouration (2 mg/day (N = 3)): 0 (0%)
Skin exfoliation (2 mg/day (N = 3)): 0 (0%)
Thrombocytopenia (2 mg/day (N = 3)): 0 (0%)
Vomiting (2 mg/day (N = 3)): 0 (0%)
Weight decreased (2 mg/day (N = 3)): 0 (0%)
Anaemia (4 mg/day (N = 7)): 0 (0%)
Asthenia (4 mg/day (N = 7)): 0 (0%)
Blood creatinine increased (4 mg/day (N = 7)): 1 (14%)
Coagulopathy (4 mg/day (N = 7)): 0 (0%)
Confusional state (4 mg/day (N = 7)): 0 (0%)
Cough (4 mg/day (N = 7)): 0 (0%)
Decreased appetite (4 mg/day (N = 7)): 1 (14%)
Dehydration (4 mg/day (N = 7)): 0 (0%)
Diarrhoea (4 mg/day (N = 7)): 0 (0%)
Dizziness (4 mg/day (N = 7)): 0 (0%)
Dry mouth (4 mg/day (N = 7)): 1 (14%)
Dry skin (4 mg/day (N = 7)): 0 (0%)
Dysgeusia (4 mg/day (N = 7)): 3 (43%)
Dyspepsia (4 mg/day (N = 7)): 0 (0%)
Dyspnoea (4 mg/day (N = 7)): 0 (0%)
Dyspnoea exertional (4 mg/day (N = 7)): 1 (14%)
Eye infection (4 mg/day (N = 7)): 0 (0%)
Fatigue (4 mg/day (N = 7)): 2 (29%)
Gastritis (4 mg/day (N = 7)): 0 (0%)
Gravitational oedema (4 mg/day (N = 7)): 0 (0%)
Hypercholesterolaemia (4 mg/day (N = 7)): 1 (14%)
Hyperglycaemia (4 mg/day (N = 7)): 5 (71%)
Hypocalcaemia (4 mg/day (N = 7)): 0 (0%)
Insomnia (4 mg/day (N = 7)): 0 (0%)
Lymphopenia (4 mg/day (N = 7)): 1 (14%)
Mucosal inflammation (4 mg/day (N = 7)): 2 (29%)
Muscle spasms (4 mg/day (N = 7)): 0 (0%)
Nausea (4 mg/day (N = 7)): 2 (29%)
Orthostatic hypotension (4 mg/day (N = 7)): 0 (0%)
Panniculitis (4 mg/day (N = 7)): 0 (0%)
Patients Reporting at Least One Related TEAE (4 mg/day (N = 7)): 7 (100%)
Polyuria (4 mg/day (N = 7)): 1 (14%)
Pruritus (4 mg/day (N = 7)): 2 (29%)
Rash (4 mg/day (N = 7)): 3 (43%)
Skin discolouration (4 mg/day (N = 7)): 0 (0%)
Skin exfoliation (4 mg/day (N = 7)): 0 (0%)
Thrombocytopenia (4 mg/day (N = 7)): 1 (14%)
Vomiting (4 mg/day (N = 7)): 0 (0%)
Weight decreased (4 mg/day (N = 7)): 0 (0%)
Dose limiting toxicity (6 mg QD): Rash
Alanine aminotransferase increased (6 mg/3 W, QDx3d QW (N = 3)): 1 (33%)
Asthenia (6 mg/3 W, QDx3d QW (N = 3)): 0 (0%)
Catheter site inflammation (6 mg/3 W, QDx3d QW (N = 3)): 0 (0%)
Catheter site pain (6 mg/3 W, QDx3d QW (N = 3)): 0 (0%)
Decreased appetite (6 mg/3 W, QDx3d QW (N = 3)): 0 (0%)
Diarrhoea (6 mg/3 W, QDx3d QW (N = 3)): 0 (0%)
Dry skin (6 mg/3 W, QDx3d QW (N = 3)): 0 (0%)
Dysgeusia (6 mg/3 W, QDx3d QW (N = 3)): 0 (0%)
Dyspnoea (6 mg/3 W, QDx3d QW (N = 3)): 0 (0%)
Fatigue (6 mg/3 W, QDx3d QW (N = 3)): 0 (0%)
Headache (6 mg/3 W, QDx3d QW (N = 3)): 0 (0%)
Hyperbilirubinaemia (6 mg/3 W, QDx3d QW (N = 3)): 1 (33%)
Hypercholesterolaemia (6 mg/3 W, QDx3d QW (N = 3)): 0 (0%)
Hyperglycaemia (6 mg/3 W, QDx3d QW (N = 3)): 1 (33%)
Hypertransaminasaemia (6 mg/3 W, QDx3d QW (N = 3)): 0 (0%)
Hypertriglyceridaemia (6 mg/3 W, QDx3d QW (N = 3)): 0 (0%)
Hypomagnesaemia (6 mg/3 W, QDx3d QW (N = 3)): 0 (0%)
Hypotension (6 mg/3 W, QDx3d QW (N = 3)): 0 (0%)
Low fever (6 mg/3 W, QDx3d QW (N = 3)): 0 (0%)
Lymphopenia (6 mg/3 W, QDx3d QW (N = 3)): 0 (0%)
Mucosal inflammation (6 mg/3 W, QDx3d QW (N = 3)): 2 (67%)
Nausea (6 mg/3 W, QDx3d QW (N = 3)): 2 (67%)
Palmar-plantar erythrodysaesthesia syndrome (6 mg/3 W, QDx3d QW (N = 3)): 0 (0%)
Patients Reporting at Least One Related TEAE (6 mg/3 W, QDx3d QW (N = 3)): 3 (100%)
Platelet count decreased (6 mg/3 W, QDx3d QW (N = 3)): 1 (33%)
Pruritus (6 mg/3 W, QDx3d QW (N = 3)): 1 (33%)
Pyrexia (6 mg/3 W, QDx3d QW (N = 3)): 0 (0%)
Rash (6 mg/3 W, QDx3d QW (N = 3)): 1 (33%)
Rash macular (6 mg/3 W, QDx3d QW (N = 3)): 0 (0%)
Urinary tract infection (6 mg/3 W, QDx3d QW (N = 3)): 0 (0%)
Vomiting (6 mg/3 W, QDx3d QW (N = 3)): 1 (33%)
Asthenia (6 mg/3 W, QDx3d QW (N = 3), 2nd Asthenia line): 0 (0%)
Anaemia (6 mg/day (N = 7)): 0 (0%)
Asthenia (6 mg/day (N = 7)): 2 (29%)
Blood creatinine increased (6 mg/day (N = 7)): 1 (14%)
Coagulopathy (6 mg/day (N = 7)): 0 (0%)
Confusional state (6 mg/day (N = 7)): 0 (0%)
Cough (6 mg/day (N = 7)): 0 (0%)
Decreased appetite (6 mg/day (N = 7)): 1 (14%)
Dehydration (6 mg/day (N = 7)): 0 (0%)
Diarrhoea (6 mg/day (N = 7)): 5 (71%)
Dizziness (6 mg/day (N = 7)): 0 (0%)
Dry mouth (6 mg/day (N = 7)): 0 (0%)
Dry skin (6 mg/day (N = 7)): 0 (0%)
Dysgeusia (6 mg/day (N = 7)): 1 (14%)
Dyspepsia (6 mg/day (N = 7)): 0 (0%)
Dyspnoea (6 mg/day (N = 7)): 0 (0%)
Dyspnoea exertional (6 mg/day (N = 7)): 0 (0%)
Eye infection (6 mg/day (N = 7)): 1 (14%)
Fatigue (6 mg/day (N = 7)): 1 (14%)
Gastritis (6 mg/day (N = 7)): 0 (0%)
Gravitational oedema (6 mg/day (N = 7)): 0 (0%)
Hypercholesterolaemia (6 mg/day (N = 7)): 3 (43%)
Hyperglycaemia (6 mg/day (N = 7)): 7 (100%)
Hypocalcaemia (6 mg/day (N = 7)): 0 (0%)
Insomnia (6 mg/day (N = 7)): 1 (14%)
Lymphopenia (6 mg/day (N = 7)): 0 (0%)
Mucosal inflammation (6 mg/day (N = 7)): 2 (29%)
Muscle spasms (6 mg/day (N = 7)): 1 (14%)
Nausea (6 mg/day (N = 7)): 3 (43%)
Orthostatic hypotension (6 mg/day (N = 7)): 0 (0%)
Panniculitis (6 mg/day (N = 7)): 0 (0%)
Patients Reporting at Least One Related TEAE (6 mg/day (N = 7)): 7 (100%)
Polyuria (6 mg/day (N = 7)): 0 (0%)
Pruritus (6 mg/day (N = 7)): 5 (71%)
Rash (6 mg/day (N = 7)): 5 (71%)
Skin discolouration (6 mg/day (N = 7)): 0 (0%)
Skin exfoliation (6 mg/day (N = 7)): 0 (0%)
Thrombocytopenia (6 mg/day (N = 7)): 0 (0%)
Vomiting (6 mg/day (N = 7)): 3 (43%)
Weight decreased (6 mg/day (N = 7)): 0 (0%)
Diarrhoea (7 mg/5 W, QDx5d QW (N = 3)): 1 (33%)
Patients Reporting at Least One Related TEAE (7 mg/5 W, QDx5d QW (N = 3)): 1 (33%)
Rash (7 mg/5 W, QDx5d QW (N = 3)): 1 (33%)
Urine tract infection (7 mg/5 W, QDx5d QW (N = 3)): 0 (0%)
Vomiting (7 mg/5 W, QDx5d QW (N = 3)): 0 (0%)
Nausea (7 mg/5 W, QDx5d QW (N = 3), 1st Nausea line): 0 (0%)
Nausea (7 mg/5 W, QDx5d QW (N = 3), 2nd Nausea line): 1 (33%)
Anaemia (7 mg/day (N = 8)): 2 (25%)
Asthenia (7 mg/day (N = 8)): 4 (50%)
Blood creatinine increased (7 mg/day (N = 8)): 4 (50%)
Coagulopathy (7 mg/day (N = 8)): 1 (13%)
Confusional state (7 mg/day (N = 8)): 1 (13%)
Cough (7 mg/day (N = 8)): 1 (13%)
Decreased appetite (7 mg/day (N = 8)): 3 (38%)
Dehydration (7 mg/day (N = 8)): 2 (25%)
Diarrhoea (7 mg/day (N = 8)): 3 (38%)
Dizziness (7 mg/day (N = 8)): 1 (13%)
Dry mouth (7 mg/day (N = 8)): 3 (38%)
Dry skin (7 mg/day (N = 8)): 1 (13%)
Dysgeusia (7 mg/day (N = 8)): 2 (25%)
Dyspepsia (7 mg/day (N = 8)): 0 (0%)
Dyspnoea (7 mg/day (N = 8)): 1 (13%)
Dyspnoea exertional (7 mg/day (N = 8)): 0 (0%)
Eye infection (7 mg/day (N = 8)): 0 (0%)
Fatigue (7 mg/day (N = 8)): 2 (25%)
Gastritis (7 mg/day (N = 8)): 1 (13%)
Gravitational oedema (7 mg/day (N = 8)): 1 (13%)
Hypercholesterolaemia (7 mg/day (N = 8)): 1 (13%)
Hyperglycaemia (7 mg/day (N = 8)): 8 (100%)
Hypocalcaemia (7 mg/day (N = 8)): 1 (13%)
Insomnia (7 mg/day (N = 8)): 0 (0%)
Lymphopenia (7 mg/day (N = 8)): 2 (25%)
Mucosal inflammation (7 mg/day (N = 8)): 4 (50%)
Muscle spasms (7 mg/day (N = 8)): 0 (0%)
Nausea (7 mg/day (N = 8)): 3 (38%)
Orthostatic hypotension (7 mg/day (N = 8)): 1 (13%)
Panniculitis (7 mg/day (N = 8)): 1 (13%)
Patients Reporting at Least One Related TEAE (7 mg/day (N = 8)): 8 (100%)
Polyuria (7 mg/day (N = 8)): 0 (0%)
Pruritus (7 mg/day (N = 8)): 2 (25%)
Rash (7 mg/day (N = 8)): 4 (50%)
Skin discolouration (7 mg/day (N = 8)): 1 (13%)
Skin exfoliation (7 mg/day (N = 8)): 1 (13%)
Thrombocytopenia (7 mg/day (N = 8)): 3 (38%)
Vomiting (7 mg/day (N = 8)): 3 (38%)
Weight decreased (7 mg/day (N = 8)): 1 (13%)
ASTHENIA (7 mg/week (N = 3)): 0 (0%)
ATHENIA (7 mg/week (N = 3)): 0 (0%)
Alanine aminotransferase increased (7 mg/week (N = 3)): 1 (33%)
Aspartate aminotransferase increased (7 mg/week (N = 3)): 1 (33%)
Asthenia (7 mg/week (N = 3)): 0 (0%)
Blood creatinine increased (7 mg/week (N = 3)): 0 (0%)
Blood triglycerides increased (7 mg/week (N = 3)): 0 (0%)
DIARRHEA (7 mg/week (N = 3)): 0 (0%)
Decreased appetite (7 mg/week (N = 3)): 0 (0%)
Diarrhoea (7 mg/week (N = 3)): 1 (33%)
Dysgeusia (7 mg/week (N = 3)): 1 (33%)
Dyspepsia (7 mg/week (N = 3)): 0 (0%)
HYPERGLYCEMIA (7 mg/week (N = 3)): 0 (0%)
Hyperglycaemia (7 mg/week (N = 3)): 1 (33%)
Lymphopenia (7 mg/week (N = 3)): 1 (33%)
Malaise (7 mg/week (N = 3)): 0 (0%)
Mucosal inflammation (7 mg/week (N = 3)): 0 (0%)
Muscle spasms (7 mg/week (N = 3)): 0 (0%)
Nausea (7 mg/week (N = 3)): 1 (33%)

— US9174994B2, “Enhanced treatment regimens using mTor inhibitors” (INTELLIKINE LLC, priority 2011, dated 2015)
